# In patent US20130197085A1, “AGENT AND METHOD FOR STABILIZING MEMBRANE PROTEIN” (priority 2007, published 2013):
# Assays:
# wild-type BSEP mRNA = assay: Measurement of BSEP mRNA level by real-time quantitative PCR in MDCKII cells; format: cell-based, human; details: 1 mM 4PBA, 24 hours; not statistically significant (P=0.10)
# Procedure: (§1) MDCKII cells were dispersed on a 6-well plate, resulting in a density of 2.5×10^5 cells/well. After completion of the culture for 24 hours, the confluent cells were infected with recombinant adenoviruses having the cDNAs of wild-type, E297G and D482G BSEPs, and GFP, at 50 MOI. After completion of the infection, the cells were cultured for 24 hours. Thereafter, the cultured cells were treated with 1 mM 4PBA. After completion of the treatment for 24 hours, RNA was isolated using ISOGEN (Wako Pure Chemical Industries, Ltd.) in accordance with an instruction manual included therewith. A DNaseI treatment was carried out at 37° C. for 1 hour, and a reverse transcription reaction was then carried out (see Hayashi et al., Hepatology, 41: 916-924, 2005). The BSEP mRNA level was measured by real-time quantitative PCR according to an ordinary method. The quantitative PCR was carried out using the following primers.
# (§2) It is to be noted that the expression of a BSEP gene in each reaction was standardized by the expression of GAPDH.
# E297G BSEP mRNA = assay: as above; format: cell-based, human; details: 1 mM 4PBA, 24 hours; not statistically significant (P=0.20)
# Procedure: as §1, §2
# D482G BSEP mRNA = assay: as above; format: cell-based, human; details: 1 mM 4PBA, 24 hours; not statistically significant (P=0.20)
# Procedure: as §1, §2
# CFTRΔF508 = CFTRΔF508 (Homo sapiens, UniProt P13569, DEL508-508); details: Non-Patent Document 2; cited from earlier work
# Chain of CFTRΔF508 (P13569 with tags, fused parts or gaps DEL508-508): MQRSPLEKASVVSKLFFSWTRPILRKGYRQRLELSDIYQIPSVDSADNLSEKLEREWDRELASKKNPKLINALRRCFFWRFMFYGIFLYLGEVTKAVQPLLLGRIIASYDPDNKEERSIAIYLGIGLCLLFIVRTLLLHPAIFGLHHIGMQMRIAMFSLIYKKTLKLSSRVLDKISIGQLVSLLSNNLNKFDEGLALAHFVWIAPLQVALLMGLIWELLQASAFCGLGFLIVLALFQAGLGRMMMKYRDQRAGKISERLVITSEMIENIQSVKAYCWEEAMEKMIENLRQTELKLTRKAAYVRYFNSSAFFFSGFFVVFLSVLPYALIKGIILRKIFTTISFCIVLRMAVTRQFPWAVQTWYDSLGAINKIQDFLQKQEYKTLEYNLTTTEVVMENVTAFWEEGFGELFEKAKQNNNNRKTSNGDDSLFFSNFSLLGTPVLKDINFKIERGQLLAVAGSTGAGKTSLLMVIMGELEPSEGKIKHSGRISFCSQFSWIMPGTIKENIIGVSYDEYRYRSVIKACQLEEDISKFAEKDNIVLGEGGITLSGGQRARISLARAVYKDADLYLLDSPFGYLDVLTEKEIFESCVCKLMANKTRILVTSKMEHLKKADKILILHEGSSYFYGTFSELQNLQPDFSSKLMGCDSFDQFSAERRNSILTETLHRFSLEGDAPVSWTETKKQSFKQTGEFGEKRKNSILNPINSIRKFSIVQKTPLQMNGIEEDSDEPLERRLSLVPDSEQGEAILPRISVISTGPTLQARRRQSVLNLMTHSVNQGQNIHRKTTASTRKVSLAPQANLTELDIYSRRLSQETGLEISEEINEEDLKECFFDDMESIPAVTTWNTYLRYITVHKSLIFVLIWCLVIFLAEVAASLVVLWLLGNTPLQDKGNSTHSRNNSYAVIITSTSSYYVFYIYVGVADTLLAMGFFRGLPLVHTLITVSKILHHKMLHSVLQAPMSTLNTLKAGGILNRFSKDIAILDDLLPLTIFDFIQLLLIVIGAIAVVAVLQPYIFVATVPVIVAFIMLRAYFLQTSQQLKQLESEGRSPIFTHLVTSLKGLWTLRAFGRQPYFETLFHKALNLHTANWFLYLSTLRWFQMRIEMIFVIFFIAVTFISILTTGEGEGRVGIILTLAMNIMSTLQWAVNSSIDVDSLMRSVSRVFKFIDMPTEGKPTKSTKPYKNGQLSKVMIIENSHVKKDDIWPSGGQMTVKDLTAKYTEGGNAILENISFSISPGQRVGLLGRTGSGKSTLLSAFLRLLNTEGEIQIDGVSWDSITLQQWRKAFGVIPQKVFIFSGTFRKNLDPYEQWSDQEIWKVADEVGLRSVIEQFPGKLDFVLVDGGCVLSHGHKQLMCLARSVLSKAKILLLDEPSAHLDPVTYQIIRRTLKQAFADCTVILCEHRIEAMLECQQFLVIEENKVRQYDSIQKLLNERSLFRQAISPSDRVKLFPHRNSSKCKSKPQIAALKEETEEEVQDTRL
# extrinsic P-gp = assay: Cell surface biotinylation method, expression on the surface of MDCKII cells; format: cell-based; details: 1 mM, 24 hours
smiles,measurement,setting,value
"O=C(O)CCCc1ccccc1 [4PBA, 4-phenylbutyric acid]",expression level of BSEP mRNA standardized by GAPDH mRNA,wild-type BSEP mRNA,slightly increased
same,expression level of BSEP mRNA standardized by GAPDH mRNA,E297G BSEP mRNA,slightly increased
same,expression level of BSEP mRNA standardized by GAPDH mRNA,D482G BSEP mRNA,slightly increased
same,expression of CFTRΔF508 on the cell membrane,CFTRΔF508,recovers its expression on the cell membrane
same,expression of extrinsic P-gp,extrinsic P-gp,not influenced
